We go through 3 compounds from paper PMC6405930, “Conservation of the Amyloid Interactome Across Diverse Fibrillar Structures” (Scientific Reports, 2019).

The target of series [1] is T1, C-36 fibrils (Homo sapiens, UniProt P01009).
T1 construct: the 36 residue C-terminal fragment of α1-antitrypsin (C-36)
Briefly: Fibril titration with ANS (fluorescence). The format is binding. Conditions: 2.5 μg aggregate material, ANS 20 to 167 μM. The procedure:
(§1) Fibril material (2.5 μg) was set up in 50 μL phosphate buffer in a 96 well half-area NBS plate (NUNC/Terma). Stepwise ANS titration was conducted from 20 to 167 μM with 100 sec mixing (300 rpm) before each measurement using a FLUOstar Omega plate reader (excitation at […], emission at 485 nm).

Series [2] has as its system chymotrypsinogen aggregates. Briefly: Fibril titration with ANS (fluorescence). The class given is binding. Conditions: 2.5 μg aggregate material, ANS 20 to 167 μM. The procedure: as §1
Series [3] concerns the target T2, glucagon fibrils (Homo sapiens, UniProt P01275).
T2 construct: fibrils of the peptide hormone glucagon
Briefly: Fibril titration with ANS (fluorescence). The class given is binding. Conditions: 2.5 μg aggregate material, ANS 20 to 167 μM. As to the method:
as §1

Series [4] deals with T3, αSN fibrils (Homo sapiens, UniProt P37840). The series is described as follows: Fibril titration with ANS (fluorescence). The class given is binding. Conditions: 2.5 μg aggregate material, ANS 20 to 167 μM. As to the method:
as §1

In series [5] the test system is T4, Ab1 fibrils.
T4 construct: Synthetic amyloid β peptide 1–40 was purchased from Caslo Aps (Lyngby, Denmark); purchased Caslo Aps (Lyngby, Denmark); host or cells: synthetic peptide
Briefly: Fibril titration with ANS (fluorescence). The format is binding, human. Conditions: 2.5 μg aggregate material, ANS 20 to 167 μM. As to the method: as §1

Series [6] relates to T5, Ab2 fibrils.
T5 construct: Two structurally distinct fibrils of the Aβ(1–40) peptide associated with AD
The series is described as follows: Fibril titration with ANS (fluorescence). Conditions: 2.5 μg aggregate material, ANS 20 to 167 μM. The class given is binding, human. The procedure:
as §1

The next series relates to T6, FAS4 AD aggregates.
T6 construct: a mutated version of the FAS1-4 domain of TGFBIp
Briefly: Fibril titration with ANS (fluorescence). The format is binding, human. Conditions: 2.5 μg aggregate material, ANS 20 to 167 μM. As to the method:
as §1

The subject of series [7] is T4, Ab1 fibrils. The series is described as follows: Fibril incubation with plasma, quantitative MS/MS of bound proteins. The format is binding, human. Conditions: 50:1 w/w plasma protein:fibril. The method, boiled down: (§2)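 Bound proteins quantified by XIC (three most abundant peptides), each normalized to run total intensity and averaged across nine LC-MS/MS experiments. Pellets came from 1 h room-temperature incubation of 20 μg fibrils with 500 μg plasma or 40 μg CSF protein in PBS with 5 mM EDTA.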

For series [8], the system named is T5, Ab2 fibrils. Described as above. The format is binding, human. The note with it: 50:1 w/w plasma protein:fibril.
The target in series [9] is T2, glucagon fibrils. Described as above. The format is binding. The note with it: 50:1 w/w plasma protein:fibril.
For series [10], the target named is T1, C-36 fibrils. Described as above. The format is binding. Conditions: 50:1 w/w plasma protein:fibril.
Series [11] has as its target T3, αSN fibrils. Described as above. Conditions: 50:1 w/w plasma protein:fibril. The format is binding. In outline: as §2
Series [12] concerns T7, FAS4-AD aggregates.
T7 construct: aggregates of a mutated version of the FAS1-4 domain of TGFBIp
The description is as above. The format is binding, human. Conditions: 50:1 w/w plasma protein:fibril. In outline: as §2

In series [13] the test system is fibril systems (Ab1, Ab2, glucagon, αSN and C-36). The series is described as follows: Fibril incubation with plasma, quantitative MS/MS, span over the fibril systems. The format is binding, human. The procedure: Plasma and CSF solutions were centrifuged (40,000 g, 20 min) to remove any aggregates. The protein concentration was determined using 280 nm absorbance assuming 1 Abs = 1 mg/mL. […] Control samples (without fibril material) were prepared similarly. All samples were incubated at room temperature for one hour under gentle agitation. Fibrils and fibril-bound proteins were pelleted by centrifugation at 17,000 g for 30 minutes. The supernatant (175 μL) was removed and the aggregate was re-suspended in 175 μL PBS and pelleted again before further preparation for gel analysis and spin-filter assisted digest for quantitative MS/MS.
The fibril-protein pellets were transferred to spin-filters (0.22 μm), washed twice in PBS (100 μL) and once in 1 M NaCl (100 μL). The fibrils and fibril-bound proteins were dissolved by one-hour incubation in 100 μL 6 M guanidinium chloride followed by elution from the spin-filter. […]
The micro-purified tryptic peptides were dissolved in 0.1% formic acid, injected and trapped on an in-house packed trap column (2 cm × 100 μm I.D) with RP ReproSil-Pur C18-AQ 3 μm resin (Dr. Maisch GmbH). […] Elution from the analytical column was performed with a linear gradient from 5% to 35% phase B (90% acetonitrile with 0.1% formic acid) over 20 min for protein identification and 50 min for quantitative analysis, respectively.
All samples were analysed three times, yielding nine MS/MS experiments for each fibril for both plasma and CSF. For the area-based extracted ion chromatogram (XIC) quantification, the acquisition method was set up as an information-dependent acquisition (IDA) experiment collecting up to 25 MS/MS spectra in each 1.6 sec cycle using an exclusion window of 6 sec. […]
XIC quantification was based on the average ion intensity of the three most abundant peptides for each protein. Only proteins quantified in at least four out of nine MS/MS experiments per fibril were included in the quantification. […]

For series [14], the system named is T4, Ab1 fibrils. The series is described as follows: Fibril incubation with CSF, quantitative MS/MS of bound proteins. Conditions: 4:1 w/w CSF protein:fibril. The class given is binding, human.
The subject of series [15] is T5, Ab2 fibrils. The series is described as above. The format is binding, human. Conditions: 4:1 w/w CSF protein:fibril.
Series [16] deals with T2, glucagon fibrils. Described as above. The class given is binding. The note with it: 4:1 w/w CSF protein:fibril.
Series [17] concerns the target T1, C-36 fibrils. The description is as above. The format is binding. Conditions: 4:1 w/w CSF protein:fibril.
For series [18], the target named is T3, αSN fibrils. Described as above. The note with it: 4:1 w/w CSF protein:fibril. The class given is binding.
Series [19] deals with T7, FAS4-AD aggregates. The description is as above. The format is binding, human. Set-up: key to Identification status of CSF protein bound: FAS4-AD: *: Identified, but not quantified; —: Not identified in any of the samples. Conditions: symbol cells.
Series [20] concerns T4, Ab1 fibrils. Briefly: Determination of the binding capacity (dye depletion from supernatant). Set-up: species or system human. Conditions: 2 nmol dye (20 µM) with 10 μg fibril material, one hour. As to the method:
(§3) Control samples (without fibril material) were prepared similarly. Fibrils and fibril-bound ligand were pelleted by centrifugation (17,000 g, 30 min) and the supernatant (90 μL) was transferred to a 96 well half-area plate (Corning 3881).

Series [21] concerns T5, Ab2 fibrils. Described as above. Set-up: species or system human. Conditions: 2 nmol dye (20 µM) with 10 μg fibril material, one hour. As to the method:
as §3

The target in series [22] is T1, C-36 fibrils. The series is described as above. The note with it: 2 nmol dye (20 µM) with 10 μg fibril material, one hour. The procedure: as §3
For series [23], the target named is T2, glucagon fibrils. The description is as above. The note with it: 2 nmol dye (20 µM) with 10 μg fibril material, one hour. The procedure:
as §3

The target in series [24] is T3, αSN fibrils. The series is described as above. The note with it: 2 nmol dye (20 µM) with 10 μg fibril material, one hour. The procedure:
as §3

Series [25] has as its target fibrils of a short Aβ fragment. Set-up: method as in PMID 23878726. Conditions: read-out: dissociation constant; cited from earlier work.

T1 sequence (P01009 383-418 limits assumed): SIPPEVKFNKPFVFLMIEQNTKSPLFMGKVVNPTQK
T2 sequence (P01275 53-81 limits assumed): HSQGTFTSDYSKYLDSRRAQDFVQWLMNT

Regarding `O=S(=O)(O)c1cccc2cccc(Nc3ccccc3)c12` [ANS, 8-anilinonaphthalene sulfonate], the ANS fluorescence signal entry on C-36 fibrils [1] is reported as “little or no signal at all”; in series [2], “intermediate signal intensities”; at glucagon fibrils [3], “little or no signal at all”; on αSN fibrils [4], “significant fluorescence enhancements”; in the series with Ab1 fibrils [5], “little or no signal at all”; in the series with Ab2 fibrils [6], “little or no signal at all”. Moreover, the ANS fluorescence signal result in the series with FAS4 AD aggregates is listed as “intermediate signal intensities”.
Turning to “Apolipoprotein A-I: plasma/CSF protein bound to fibrils”, the “Relative composition of plasma proteins bound: Ab1” value in the series on Ab1 fibrils [7] is listed as 8.8 ± 0.9 % of total protein. Further, the “Relative composition of plasma proteins bound: Ab2” value in the series on Ab2 fibrils [8] is recorded as 14.9 ± 7.0 % of total protein. The “Relative composition of plasma proteins bound: Glucagon” value in the series with glucagon fibrils [9] is on record as 11.7 ± 1.4 % of total protein. In addition, the “Relative composition of plasma proteins bound: C-36” value with C-36 fibrils [10] is listed as 13.5 ± 0.5 % of total protein. Moreover, in the series with αSN fibrils [11], the “Relative composition of plasma proteins bound: αSN” value is on record as 14.7 ± 3.0 % of total protein. Also, the “Relative composition of plasma proteins bound: FAS4-AD” value with FAS4-AD aggregates [12] is given as 15.7 ± 4.6 % of total protein. Besides, the “contribution to the fibril interactomes” value in [13] was 8.8–14.9%. For the same compound, the “Relative composition of CSF proteins bound: Ab1” value in the series on Ab1 fibrils [14] is 3.9 ± 0.4 % of total protein. For the same compound, in the series on Ab2 fibrils [15], the “Relative composition of CSF proteins bound: Ab2” value is 2.9 ± 0.6 % of total protein. Further, the “Relative composition of CSF proteins bound: Glucagon” value in the series with glucagon fibrils [16] is recorded as 2.6 ± 0.8 % of total protein. Moreover, the “Relative composition of CSF proteins bound: C-36” value in the series with C-36 fibrils [17] is 5.0 ± 1.6 % of total protein. Further, the “Relative composition of CSF proteins bound: αSN” value in the series with αSN fibrils [18] is 2.7 ± 1.0 % of total protein. Also, the “Identification status of CSF protein bound: FAS4-AD” value in the series on FAS4-AD aggregates [19] is given as “*”.
As for `O=S(=O)(O)c1cc(S(=O)(=O)O)c2c(/N=N/c3ccccc3)c(O)ccc2c1` [Orange-G], the “Ligand bound (binding capacity)” value was found to be 7 nmol/mg fibril in the series on Ab1 fibrils [20]; 4 nmol/mg fibril with Ab2 fibrils [21]; 28 nmol/mg fibril on C-36 fibrils [22]; 6 nmol/mg fibril at glucagon fibrils [23]; 6 nmol/mg fibril at αSN fibrils [24]. The Kd in series [25] was approximately 50 µM.
